Article PMC10316653 (iScience, 2023)
Blank lines part the entries; values can stand above or below the compound they belong to.

Assays:
A2BAR [1] = molecular target: T1, A2BAR (Rattus norvegicus, UniProt P29276); assay: cAMP accumulation assay in H9C2 cells endogenously expressing the A2BAR; type: cell-based
T1 sequence (P29276 1-332): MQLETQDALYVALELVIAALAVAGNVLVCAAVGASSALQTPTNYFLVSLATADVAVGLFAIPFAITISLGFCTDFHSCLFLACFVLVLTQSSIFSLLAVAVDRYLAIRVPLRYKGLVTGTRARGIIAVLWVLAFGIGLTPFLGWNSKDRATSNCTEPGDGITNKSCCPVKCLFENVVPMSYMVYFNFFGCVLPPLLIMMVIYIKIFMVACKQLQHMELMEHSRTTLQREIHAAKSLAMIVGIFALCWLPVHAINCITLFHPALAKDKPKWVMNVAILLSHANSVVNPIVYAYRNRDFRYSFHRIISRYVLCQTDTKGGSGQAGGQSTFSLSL

A1AR = molecular target: T2, A1AR (Rattus norvegicus, UniProt P25099); assay: A1AR-mediated inhibition of forskolin-stimulated cAMP accumulation in H9C2 cells; type: cell-based
T2 sequence (P25099 1-326): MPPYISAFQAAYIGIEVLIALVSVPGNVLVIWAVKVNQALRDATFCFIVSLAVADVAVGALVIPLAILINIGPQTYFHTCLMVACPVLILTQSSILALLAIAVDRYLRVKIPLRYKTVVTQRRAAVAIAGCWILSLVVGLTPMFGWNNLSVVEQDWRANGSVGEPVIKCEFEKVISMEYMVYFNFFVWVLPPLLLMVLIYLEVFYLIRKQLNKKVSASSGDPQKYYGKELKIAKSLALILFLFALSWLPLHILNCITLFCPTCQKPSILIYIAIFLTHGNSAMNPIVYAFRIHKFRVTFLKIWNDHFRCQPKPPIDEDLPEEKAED

A2BAR [2] = molecular target: T3, A2BAR (Homo sapiens, UniProt P29275); assay: cAMP accumulation assay in HEK293-A2B cells; type: cell-based; conditions: HEK293-A2B cells
T3 sequence (P29275 1-332): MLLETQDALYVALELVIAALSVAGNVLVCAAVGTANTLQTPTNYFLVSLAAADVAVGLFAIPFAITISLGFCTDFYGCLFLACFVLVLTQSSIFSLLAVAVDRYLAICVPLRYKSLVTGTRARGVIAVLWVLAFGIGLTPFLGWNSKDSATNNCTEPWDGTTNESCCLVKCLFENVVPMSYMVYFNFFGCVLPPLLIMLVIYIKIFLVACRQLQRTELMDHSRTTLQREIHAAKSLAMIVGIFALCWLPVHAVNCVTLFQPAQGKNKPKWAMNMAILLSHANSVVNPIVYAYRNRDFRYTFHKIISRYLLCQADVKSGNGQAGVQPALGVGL

A2BAR [3] = molecular target: T3, A2BAR; assay: cAMP accumulation assay in naive HEK293 cells; type: cell-based
PKCβI = conditions: reported selectivity profile, ref not given; cited from earlier work
PKCα = conditions: reported selectivity profile, ref not given; cited from earlier work
H9C2 cells = assay: Intracellular calcium mobilization assay in H9C2 cells; type: cell-based, rat; conditions: GO6983 1 μM 20 min before PMA 1 μM
ERK1/2 = ERK1/2 activity assay in H9C2 cells; type: cell-based, rat; conditions: 1 μM added 20 min before PMA 1 μM
A2BAR [4] = molecular target: T3, A2BAR; assay: Intracellular calcium mobilization assay in HEK293-A2B cells; type: cell-based; conditions: GO6983 1 μM before PMA 1 μM
A2BAR [5] = molecular target: T3, A2BAR; assay: Radioligand binding to membranes from HEK293-A2B cells; conditions: membranes from HEK293-A2B cells, 1 μM
[6] = inhibitor 20 min before PMA (Figure 10C)
[7] = naive HEK293 cells, inhibitor 1 μM, PMA 1 μM, BAY 10 μM

SMILES: N#Cc1c(N)nc(SCC(N)=O)c(C#N)c1-c1ccc(OCC2CC2)cc1 [BAY]
- induction of cAMP accumulation (A2BAR [1]; H9C2 cells, agonist 20 min): induced robust cAMP accumulation

SMILES: OC1C(CCl)OC(n2cnc3c(NC4CC5CCC4C5)ncnc32)C1O (stereo not drawn) [Cl-ENBA]
- inhibited cAMP accumulation stimulated by forskolin (A1AR; 1 μM, forskolin 10 μM): neither
- inhibition of forskolin's effect on cAMP (A1AR; range of concentrations (Figure S1)): unable to inhibit forskolin’s effect

SMILES: CN(C)CCCn1cc(C2=C(c3c[nH]c4ccccc34)C(=O)NC2=O)c2ccccc21 [GF109203X]
- effect on PKC-induced A2BAR activation (cAMP) (A2BAR [2]; [6]): significantly inhibited
- remaining enhancement (A2BAR [3]; naive HEK293 cells, in the presence of 1 μM GF109203X): 26%
- effect on PKC (PMA)-induced enhancement of BAY-induced cAMP accumulation (A2BAR [3]; [7]): blocked PKC-induced enhancement
- inhibition of PKC-induced enhancement of BAY-induced cAMP accumulation (A2BAR [3]; [7]): 74%

More lines, main results first:

- effect on PKC-induced A2BAR activation (cAMP) (A2BAR [2]; inhibitor 30 nM): lack of inhibition
- effect on PKC (PMA)-induced enhancement of BAY-induced cAMP accumulation (A2BAR [3]; [7]): modest but significant inhibition
SMILES: Cn1c2ccccc2c2c3c(c4c5ccccc5n(CCC#N)c4c21)CNC3=O [GO6976]
- IC50 (PKCβI): 6.2 nM
- IC50 (PKCα): 2.3 nM

- effect on PKC-induced A2BAR activation (cAMP) (A2BAR [2]; [6]): significantly inhibited
- effect on PKC (PMA)-induced enhancement of BAY-induced cAMP accumulation (A2BAR [3]; [7]): blocked PKC-induced enhancement
- effect on PMA inhibition of NECA-induced calcium mobilization (A2BAR [4]): completely blocked
SMILES: COc1ccc2c(c1)c(C1=C(c3c[nH]c4ccccc34)C(=O)NC1=O)cn2CCCN(C)C [GO6983]
- effect on BAY-induced cAMP accumulation (A2BAR [1]; H9C2 cells, 1 μM, no PMA): did not affect BAY-induced cAMP accumulation
- effect on PKC- and NECA-induced cAMP accumulation (A2BAR [2]; GO6983 1 μM): blocked PKC- but not NECA-induced cAMP accumulation
- effect on PMA inhibition of UTP calcium response (H9C2 cells): completely reversed
- effect on PMA-induced ERK1/2 phosphorylation (ERK1/2): diminished

- effect on PMA enhancement of cAMP accumulation (A2BAR [3]; HEK293 cells, H89 10 μM, PMA 1 μM): unaffected
SMILES: O=S(=O)(NCCNC/C=C/c1ccc(Br)cc1)c1cccc2cnccc12 [H89]
- effect on PMA-induced ERK1/2 phosphorylation (ERK1/2): not affected

- effect on PMA-induced cAMP accumulation (A2BAR [1]; naive H9C2 cells, antagonist 1 µM): inhibited
- KB against BAY more potent than IC50 against PKC (A2BAR [2]): over 100 fold
- displacement of specific binding of [3H]NECA (25 nM) (A2BAR [5]): 100%
SMILES: CCCn1c(=O)c2[nH]c(-c3ccc(OCC(=O)Nc4ccc(C#N)cc4)cc3)nc2n(CCC)c1=O [MRS1754]

- effect of pretreatment on A2BAR (NECA)-mediated cAMP accumulation (A2BAR [2]; 1 μM, 20 min before NECA): did not show any effect
SMILES: CSc1nc(N)c2ncn([C@H]3[C@H](O)[C@H](O)[C@]4(COP(=O)([O-])OP(=O)([O-])[O-])C[C@H]34)c2n1.[Na+].[Na+].[Na+] [MRS2365, [[(1R,2R,3S,4R,5S)-4-[6-amino-2-(methylthio)-9H-purin-9-yl]-2,3-dihydroxybicyclo[3.1.0]hex-1-yl]methyl] diphosphoric acid monoester trisodium salt]
